Assay results from ChEMBL document CHEMBL5674860, “Optimized Dual-Glo Assay to identify co-culture-induced drug vulnerabilities in 3D CRC models” (2024).

Assays:
Type in all cases: functional, Homo sapiens
Design in all cases: dose or concentration left out as unconfirmed
Colon cancer organoid [1] = assay: Optimized Dual-Glo assay to identify co-culture induced drug vulnerabilities using donated chemical probes and chemogenomics kinase set in O06 CRC organoid and F06 CAF mono and co-culture. […] Cell viability is reported both mono and co-culture models.
Colon cancer organoid [2] = assay: Optimized Dual-Glo assay to identify co-culture induced drug vulnerabilities using donated chemical probes and chemogenomics kinase set in O14 CRC organoid and F14 CAF mono and co-culture. […] Cell viability is reported both mono and co-culture models.
Colon cancer organoid [3] = assay: Optimized Dual-Glo assay to identify co-culture induced drug vulnerabilities using donated chemical probes and chemogenomics kinase set in O20 CRC organoid and F20 CAF mono and co-culture. […] Cell viability is reported both mono and co-culture models.
[4] = Culture type Co-Culture, Transduced with Lucferase2-P2A-EGFP lentivirus
[5] = Culture type Co-Culture, Transduced with Renilla-dsRed lentivirus
[6] = Culture type Mono-Culture, Transduced with Lucferase2-P2A-EGFP lentivirus
[7] = Culture type Mono-Culture, Transduced with Renilla-dsRed lentivirus

| SMILES | Cell Viability (Colon cancer organoid [1]; [4]) [%] | Cell Viability (Colon cancer organoid [1]; [5]) [%] | Cell Viability (Colon cancer organoid [1]; [6]) [%] | Cell Viability (Colon cancer organoid [1]; [7]) [%] | Cell Viability (Colon cancer organoid [2]; [4]) [%] | Cell Viability (Colon cancer organoid [2]; [5]) [%] | Cell Viability (Colon cancer organoid [2]; [6]) [%] | Cell Viability (Colon cancer organoid [2]; [7]) [%] | Cell Viability (Colon cancer organoid [3]; [4]) [%] | Cell Viability (Colon cancer organoid [3]; [5]) [%] | Cell Viability (Colon cancer organoid [3]; [6]) [%] | Cell Viability (Colon cancer organoid [3]; [7]) [%] |
| --- | --- | --- | --- | --- | --- | --- | --- | --- | --- | --- | --- | --- |
| Clc1cc2c(NC3CCCC3)nnc(-c3ccncc3)c2cc1Cl | 131.765 | 133.642 | 39.455 | 87.2375 | 74.2058 | 99.3707 | 72.2513 | 106.405 | 149.301 | 128.6 | 80.485 | 77.3951 |
| CCS(=O)(=O)c1cc2cc(C[C@](O)(CC(C)(C)c3ccc(F)cc3C(N)=O)C(F)(F)F)[nH]c2cn1 [BI 653048] | 136.436 | 297.33 | 97.0766 | 179.661 | 98.1614 | 169.499 | 94.8893 | 163.254 | 85.6205 | 287.465 | 124.389 | 135.577 |
| O=C(N[C@H]1CCCCC/C=C\C2C[C@@]2(C(=O)O)NC(=O)[C@@H]2C[C@@H](Oc3ccncc3)CN2C1=O)OC1CCCC1 (stereo partly drawn) [BI 1675] | 118.509 | 153.84 | 83.7502 | 91.3607 | 104.235 | 108.175 | 94.4705 | 89.8487 | 103.036 | 110.731 | 113.647 | 94.6025 |
| CCN(CC)S(=O)(=O)Nc1cccc(-c2ccc3c(NC(=O)C4CC4)n[nH]c3c2)c1 | 95.7035 | 91.2372 | 90.915 | 111.432 | 132.967 | 105.386 | 144.3 | 103.503 | 76.1767 | 136.148 | 110.502 | 120.639 |
| O=C(Nc1cccnn1)N1CCC(=Cc2cccc(Oc3ccc(C(F)(F)F)cn3)c2)CC1 | 113.161 | 193.053 | 80.1285 | 90.1757 | 80.0964 | 115.877 | 79.6396 | 77.8588 | 75.4997 | 114.419 | 100.525 | 97.4491 |
| COCC(=O)NC/C=C/c1ccc2ncnc(Nc3ccc(Oc4ccc(C)nc4)c(C)c3)c2c1 [CP-724714] | 64.178 | 58.1065 | 46.8341 | 91.801 | 60.8642 | 107.55 | 48.0446 | 87.9569 | 97.3561 | 94.0282 | 76.6577 | 85.6537 |
| Cn1cc(-c2ccc3occ(-c4cccc(-c5ccncc5)c4)c3n2)cn1 | 91.2802 | 94.5664 | 138.621 | 110.377 | 113.323 | 67.5057 | 72.9931 | 81.4959 | 65.7439 | 132.411 | 69.6903 | 72.543 |
| O=C(Nc1nc2cccc(-c3ccc(CN4CCS(=O)(=O)CC4)cc3)n2n1)C1CC1 [FILGOTINIB] | 100.525 | 92.8016 | 121.161 | 92.1067 | 124.013 | 111.823 | 119.446 | 102.655 | 112.545 | 86.0918 | 106.088 | 87.0807 |
| COc1cc(Nc2nc(C)cc(-c3cnn4nc(OC)ccc34)n2)cc(C(F)(F)F)c1 | 131.373 | 124.179 | 105.332 | 118.145 | 103.629 | 105.362 | 103.076 | 99.2277 | 136.021 | 99.6244 | 133.384 | 109.532 |
